Twelve compounds from ChEMBL document CHEMBL1201862, “PubChem BioAssay data set” (2004) can be followed below.

Structures are written as SMILES.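 The compound was tested at five concentrations on cells cultured in 96-well plates, with a 48-hour exposure period. GI50 = concentration required for 50% inhibition of growth.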 Active and inactive are the calls of the source. No stated cut-off is given here; in the data, active = GI50 up to about 1.1 µM and inactive = higher. Some results are limits rather than exact numbers.

Common to all, as to test: growth of human tumour cells (NCI), 48 h
Assay [1] relates to HCT-15.
The subject of assay [2] is EKVX.
In assay [3] the test system is TK-10.
Assay [4] has as its system NCI-H23.
The subject of assay [5] is OVCAR-5.
In assay [6] the test system is MDA-MB-435.
Assay [7] deals with A549.
For assay [8], the system named is SK-MEL-2.
Assay [9] deals with SNB-75.
For assay [10], the system named is SK-MEL-5.
The subject of assay [11] is ACHN.
Assay [12] concerns OVCAR-4.
Assay [13] relates to HOP-92.
Assay [14] has as its system Hs-578T.
The test system of assay [15] is A498.
Assay [16] relates to SF-295.
The subject of assay [17] is U-251.
Assay [18] has as its system LOX IMVI.
Assay [19] has as its system HCC 2998.

For the compound `C[n+]1c(-c2ccc(/C=N\N3CCN(/N=C/c4ccc(-c5cn6ccccc6[n+]5C)cc4)CC3)cc2)cn2ccccc21`, the GI50 was 88.3 µM in assay [1]; 70.8 µM (inactive) in assay [2]; 63.4 µM (inactive) in assay [3]; 27.8 µM (inactive) in [4]; > 100 µM (inactive) in [5]; 34.5 µM (inactive) in assay [6]. The GI50 in [7] was > 100 µM (inactive); in assay [8], 56.8 µM (inactive); in [9], 39.4 µM (inactive); in assay [10], 17.8 µM (inactive); in assay [11], 45.1 µM (inactive); in [12] it was 74.6 µM (inactive). For the same compound, the GI50 in assay [13] is 26.4 µM (inactive); in [14] it was 29.3 µM (inactive); in assay [15] it was 16.2 µM (inactive); in [16], 19.1 µM (inactive); in assay [17] it was 27.1 µM (inactive); in assay [18], > 100 µM (inactive).
For `BrC(=C(c1ccc(OC2CCCCO2)cc1)c1ccc(OC2CCCCO2)cc1)c1ccccc1` (centres undefined), the GI50 is greater than 100 µM in assay [1]; > 100 µM (inactive) in assay [2]; 28.8 µM (inactive) in [3]; > 100 µM (inactive) in assay [4]; > 100 µM (inactive) in [6]; > 100 µM (inactive) in assay [7]. For the same compound, the GI50 in assay [9], in assay [12], in assay [13], in assay [14], in [15] and in assay [16] was > 100 µM (inactive) in each case. Besides, the GI50 in assay [17] and in assay [18] was > 100 µM (inactive) in each case.
In the case of `COc1ccc(OC)c(-c2cn3c(n2)sc2ccccc23)c1`, the GI50 in assay [1] was greater than 100 µM; in assay [2] it was > 100 µM (inactive); in assay [3] it was > 100 µM (inactive); in [4] it was > 100 µM (inactive); in assay [5], > 100 µM (inactive); in assay [6], > 100 µM (inactive). Further, the GI50 in [7] is > 100 µM (inactive); in [8], > 100 µM (inactive); in assay [9] it was > 100 µM (inactive); in [10], 65 µM (inactive); in assay [11], > 100 µM (inactive); in [12], > 100 µM (inactive). For the same compound, the GI50 in assay [13] was 15.8 µM (inactive); in assay [14], 39.7 µM (inactive); in [16], 95.3 µM (inactive); in assay [17], > 100 µM (inactive); in [18], > 100 µM (inactive).
Turning to `Clc1ccc(C2Nc3ccccc3C3=NCCN32)cc1` (centres undefined), the GI50 in assay [1] was 34.3 µM; in assay [2], 25.6 µM (inactive); in assay [3] it was 16.8 µM (inactive); in assay [4], 19.5 µM (inactive); in [5], 29.7 µM (inactive); in [6], 16.6 µM (inactive). Moreover, the GI50 in assay [7] was 32.3 µM (inactive); in assay [8], 19.1 µM (inactive); in assay [10], 15.7 µM (inactive); in [11] it was 35.3 µM (inactive); in assay [12], 30.7 µM (inactive); in assay [13], 8.18 µM (inactive). Moreover, the GI50 is 33.3 µM (inactive) in [14]; 22.9 µM (inactive) in assay [15]; 14.8 µM (inactive) in [16]; 25.9 µM (inactive) in assay [17]; 17.2 µM (inactive) in [18].
For the compound `Cc1cc(-c2cc(C(C)(C)C)c(O)c(C(C)(C)C)c2)c(C)cc1-c1cc(C(C)(C)C)c(O)c(C(C)(C)C)c1`, the GI50 in assay [1] was greater than 100 µM; in [2] it was > 100 µM (inactive); in assay [3], > 100 µM (inactive); in assay [4], > 100 µM (inactive); in assay [5], > 100 µM (inactive); in assay [6], 13.6 µM (inactive). Moreover, the GI50 in assay [7], in assay [8], in assay [9], in [10], in assay [11] and in assay [12] was > 100 µM (inactive) in each case. The GI50 in assay [13] is 12.1 µM (inactive); in [14], > 100 µM (inactive); in assay [15] it was 27.3 µM (inactive); in [16] it was > 100 µM (inactive); in [17] it was > 100 µM (inactive); in assay [18], > 100 µM (inactive).
With `COc1c2c(cc3occ(-c4ccc(CC=C(C)C)cc4)c(=O)c13)OC(C)(C)C=C2`, the GI50 in assay [1] is 45.9 µM; in [2], 28.4 µM (inactive); in assay [3] it was 81.8 µM (inactive); in assay [4] it was 25.8 µM (inactive); in [5], > 100 µM (inactive); in [6], 27 µM (inactive). The GI50 in [7] was 30.1 µM (inactive); in assay [8], 11.2 µM (inactive); in assay [9], 60.1 µM (inactive); in assay [10], 11.7 µM (inactive); in assay [11] it was 77.6 µM (inactive); in assay [12], > 10 µM (inactive). Also, the GI50 was 85.1 µM (inactive) in assay [14]; 59.2 µM (inactive) in [19]; 35.4 µM (inactive) in assay [16]; 33.7 µM (inactive) in [17]; 23.6 µM (inactive) in [18].
For `C/C(=N\O)c1ccc2ccc3ccccc3c2c1`, the GI50 in [1] is 28.9 µM; in assay [2] it was 15.3 µM (inactive); in [3] it was 37.9 µM (inactive); in assay [4] it was 65.3 µM (inactive); in [5], 52.2 µM (inactive); in assay [6], 22.2 µM (inactive). Besides, the GI50 in assay [7] was 31.8 µM (inactive); in assay [8], 43 µM (inactive); in [9], 25.5 µM (inactive); in assay [10], 19.2 µM (inactive); in [11], 32.8 µM (inactive); in [12] it was 23 µM (inactive). Further, the GI50 in [14] is 27.6 µM (inactive); in [16], 37.3 µM (inactive); in assay [17], 29.8 µM (inactive); in assay [18], 24.5 µM (inactive).
With `COC1C(O)CC(OC2C(C)OC(Oc3cc(O)c4c(O)c5c(cc4c3)C[C@@H]([C@H](OC)C(=O)[C@@H](O)[C@@H](C)O)[C@H](OC3CC(OC4CC(OC6CC(C)(O)C(O)C(C)O6)C(O)C(C)O4)C(O)C(C)O3)C5=O)CC2OC(C)=O)OC1C` (some centres undefined), the GI50 in assay [1] is greater than 100 µM; in assay [2], > 100 µM (inactive); in [3], > 100 µM (inactive); in [4], 88.1 µM (inactive); in assay [5] it was > 100 µM (inactive); in assay [6] it was 34 µM (inactive). In addition, the GI50 is 63.1 µM (inactive) in assay [7]; 79.3 µM (inactive) in assay [8]; > 100 µM (inactive) in assay [9]; 17.1 µM (inactive) in [10]; 56.1 µM (inactive) in [11]; > 100 µM (inactive) in [12]. In addition, the GI50 was 20.3 µM (inactive) in assay [14]; > 100 µM (inactive) in assay [15]; 97.9 µM (inactive) in [19]; > 10 µM (inactive) in assay [16]; 48.1 µM (inactive) in assay [17]; 19.5 µM (inactive) in [18].
Turning to `Cc1ccc(Sc2ccccc2C23OC(C)(C4C(=O)N(c5ccccc5)C(=O)C42)N(C)C3=O)cc1` (centres undefined), the GI50 in assay [1] is greater than 100 µM; in assay [2], > 100 µM (inactive); in [3] it was > 100 µM (inactive); in [4], > 100 µM (inactive); in assay [5], > 100 µM (inactive); in [6], > 100 µM (inactive). Moreover, the GI50 in assay [7] is > 100 µM (inactive); in assay [8], > 100 µM (inactive); in [9] it was > 100 µM (inactive); in assay [10] it was > 100 µM (inactive); in assay [11], > 100 µM (inactive); in [12], 84.5 µM (inactive). Moreover, the GI50 was 42.8 µM (inactive) in assay [13]; 59.4 µM (inactive) in assay [14]; 86.9 µM (inactive) in assay [15]; > 100 µM (inactive) in assay [16]; > 100 µM (inactive) in assay [17]; > 100 µM (inactive) in [18].
Consider `CCn1cc2c(=O)n3ncn(-c4ccc(Br)cc4)c3nc2n1`, for which the GI50 in assay [1] was 93.8 µM; in [2], > 100 µM (inactive); in assay [3], 78.2 µM (inactive); in assay [4] it was > 100 µM (inactive); in assay [5] it was > 100 µM (inactive); in assay [6], > 100 µM (inactive). The GI50 is > 100 µM (inactive) in assay [7]; > 100 µM (inactive) in [8]; 21 µM (inactive) in [9]; > 100 µM (inactive) in assay [10]; > 100 µM (inactive) in assay [11]; > 100 µM (inactive) in assay [12]. Further, the GI50 in assay [14] is 29.9 µM (inactive); in [15], > 100 µM (inactive); in assay [19], > 100 µM (inactive); in [16], > 100 µM (inactive); in assay [17], 58.1 µM (inactive).
`O/N=N/c1ccc2ccccc2n1`: the GI50 in assay [1] was greater than 100 µM; in assay [2], 90.2 µM (inactive); in assay [3], > 100 µM (inactive); in assay [4], > 100 µM (inactive); in assay [5] it was > 100 µM (inactive); in assay [6], > 100 µM (inactive). In addition, the GI50 in assay [7] was > 100 µM (inactive); in [8], > 100 µM (inactive); in assay [9] it was 75.5 µM (inactive); in assay [10] it was > 100 µM (inactive); in assay [11] it was > 100 µM (inactive); in [12], > 100 µM (inactive). Besides, the GI50 was > 100 µM (inactive) in assay [14]; 72.9 µM (inactive) in assay [15]; > 100 µM (inactive) in assay [16]; > 100 µM (inactive) in assay [17]; > 100 µM (inactive) in [18].
`CCOC(=O)C1(C/C=C\CBr)CCCC1=O` (centres undefined): the GI50 in assay [1] is 26.9 µM; in [2], > 100 µM (inactive); in assay [3], 13.2 µM (inactive); in [4], 23.8 µM (inactive); in assay [5], 31.2 µM (inactive); in assay [6], 22.1 µM (inactive). Besides, the GI50 in assay [7] was 30.6 µM (inactive); in assay [8], 31.3 µM (inactive); in assay [9], 27 µM (inactive); in assay [10] it was 26.7 µM (inactive); in assay [11], 20.4 µM (inactive); in assay [12] it was 34.4 µM (inactive). The GI50 in [14] is 55.6 µM (inactive); in [15], > 100 µM (inactive); in assay [16] it was 60 µM (inactive); in [17], 20.1 µM (inactive); in assay [18], 15.7 µM (inactive).
